# Earlier results in patent EP3913370A1, “METHOD FOR DIAGNOSING CARCINOMAS USING IRGD AS A TUMOR MARKER BOOSTER” (Piiper, Albrecht, priority 2020, dated 2021).
# Assays:
# [1] = in vivo
# [2] = human, in vivo
smiles,measurement,setting,value
"N=C(N)NCCC[C@@H]1NC(=O)[C@@H](N)CSSC[C@@H](C(=O)O)NC(=O)[C@H](CC(=O)O)NC(=O)[C@@H]2CCCN2C(=O)CNC(=O)[C@H](CCCCN)NC(=O)[C@H](CC(=O)O)NC(=O)CNC1=O [iRGD, CRGDKGPDC (SEQ ID No. 1)]",toxicity associated with administration,[1],no toxicity
same,toxicity in humans,[2],low toxicity
